Measured values reported in the Kinase Knowledgebase extract (Sharma et al. 2016).

Legend:
EGFR = EGFR (UniProt P00533)
EGFR (mouse) = EGFR (mouse) (UniProt P00533); details: mk

EGFR, sequence (P00533 whole entry, looked up): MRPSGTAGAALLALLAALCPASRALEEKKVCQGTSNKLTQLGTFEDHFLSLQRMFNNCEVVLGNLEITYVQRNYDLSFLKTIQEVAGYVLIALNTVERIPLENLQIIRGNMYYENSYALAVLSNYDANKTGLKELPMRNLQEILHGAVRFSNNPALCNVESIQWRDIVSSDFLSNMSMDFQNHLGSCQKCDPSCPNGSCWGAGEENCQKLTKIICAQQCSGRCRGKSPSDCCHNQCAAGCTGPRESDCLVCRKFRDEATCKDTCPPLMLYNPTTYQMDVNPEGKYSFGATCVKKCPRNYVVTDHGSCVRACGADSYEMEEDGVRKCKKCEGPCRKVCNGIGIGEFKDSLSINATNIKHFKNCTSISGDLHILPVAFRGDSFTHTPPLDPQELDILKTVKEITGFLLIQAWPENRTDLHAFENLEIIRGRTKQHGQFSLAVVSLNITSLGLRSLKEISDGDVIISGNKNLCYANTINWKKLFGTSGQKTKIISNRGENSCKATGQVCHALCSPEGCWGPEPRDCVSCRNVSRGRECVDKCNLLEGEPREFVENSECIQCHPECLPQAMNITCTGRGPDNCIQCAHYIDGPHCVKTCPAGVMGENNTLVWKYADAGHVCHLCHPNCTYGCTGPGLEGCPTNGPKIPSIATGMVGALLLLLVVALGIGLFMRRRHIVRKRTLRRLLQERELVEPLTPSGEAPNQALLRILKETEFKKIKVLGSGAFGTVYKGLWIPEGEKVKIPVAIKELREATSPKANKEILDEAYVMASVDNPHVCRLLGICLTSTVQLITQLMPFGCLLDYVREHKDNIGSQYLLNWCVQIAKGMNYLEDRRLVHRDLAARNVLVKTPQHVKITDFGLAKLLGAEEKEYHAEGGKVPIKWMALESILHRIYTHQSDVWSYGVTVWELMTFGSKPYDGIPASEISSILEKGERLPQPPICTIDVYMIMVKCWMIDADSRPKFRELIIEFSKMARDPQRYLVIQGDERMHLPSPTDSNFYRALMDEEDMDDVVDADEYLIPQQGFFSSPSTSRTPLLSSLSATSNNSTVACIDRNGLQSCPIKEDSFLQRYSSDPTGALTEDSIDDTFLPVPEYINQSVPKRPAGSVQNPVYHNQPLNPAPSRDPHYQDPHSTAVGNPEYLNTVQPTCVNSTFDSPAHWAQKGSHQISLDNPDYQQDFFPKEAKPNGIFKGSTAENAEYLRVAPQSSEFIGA

Structure (SMILES) | IC50 (EGFR) [µM] | IC50 (EGFR (mouse)) [µM]
O=C1c2cc(O)cc(O)c2C(=O)c2c1cc(O)c(C(CCO)C(=O)O)c2O (centres undefined) | 10.5 | 16
CC(=O)CCC(C(=O)O)c1c(O)cc2c(c1O)C(=O)c1c(O)cc(O)cc1C2=O (centres undefined) | 21 | > 50
C[C@]12CC[C@@H](CO1)c1c(cc3c(c1O)C(=O)c1c(O)cc(O)cc1C3=O)O2 | 38 | 18
O=C1c2cc(O)cc(O)c2C(=O)c2c1cc(O)c(C1CCOC1=O)c2O (centres undefined) | 11 | 35
O=C1c2cc(O)cc(O)c2C(=O)c2c1cc(O)c(CO)c2O | 6.7 | 10
COC(=O)C(CCC(C)=O)c1c(O)cc2c(c1O)C(=O)c1c(O)cc(O)cc1C2=O (centres undefined) | 17 | 28
O=C1c2cc(O)cc(O)c2C(=O)c2c1cc(O)c(C(CO)CCO)c2O (centres undefined) | 21 | 22
